Entries after “also recorded” stand apart in the source; their conditions may differ.
What was measured:
CXCR3-PK1 = target: T1, CXCR3-PK1 (Homo sapiens, UniProt P49682); assay: β-arrestin 2 recruitment assay (PathHunter, DiscoveRx), CXCR3-PK1 construct; type: cell-based; settings: for CXCR3-PK1 pEC50 ± SEM: HEK293-T cells, PathHunter, two to three experiments in triplicate
T1 construct: expressed in transfected cells; host or cells: HEK293 cells stably expressing beta-gal enzyme acceptor (PathHunter, DiscoveRx), transiently transfected
T1 sequence (P49682 1-368): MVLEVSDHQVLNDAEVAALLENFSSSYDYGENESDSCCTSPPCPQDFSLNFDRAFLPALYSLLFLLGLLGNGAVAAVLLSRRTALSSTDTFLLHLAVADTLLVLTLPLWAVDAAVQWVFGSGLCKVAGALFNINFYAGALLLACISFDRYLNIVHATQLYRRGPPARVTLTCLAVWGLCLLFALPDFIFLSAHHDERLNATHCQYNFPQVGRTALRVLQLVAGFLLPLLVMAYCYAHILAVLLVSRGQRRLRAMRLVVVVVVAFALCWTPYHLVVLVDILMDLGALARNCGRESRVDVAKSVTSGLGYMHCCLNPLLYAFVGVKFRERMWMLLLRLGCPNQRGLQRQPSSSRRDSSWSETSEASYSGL
How it was run: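 HEK293 cells stably expressing β-gal enzyme acceptor, transiently transfected with PK1-tagged wild-type CXCR3, seeded overnight at 37°C. Test compounds or CXCL11 at various concentrations in PBS pH 7.4 with 0.20% BSA, 4 h; detection mix 60 min at room temperature. β-gal fragment complementation read by chemiluminescence.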

CXCR3 = target: T2, CXCR3 (Homo sapiens, UniProt P49682); assay: [35S]GTPγS incorporation assay; type: biochemical; settings: for CXCR3 Efficacy (%) ± SEM: % of CXCL11 mediated effect; for CXCR3 Efficacy (%) ± SEM / CXCR3 pEC50 ± SEM: membrane preparations of HEK293T stably expressing CXCR3; for CXCR3 mediated G protein activation (result in words): [35S]GTPγS incorporation; for CXCR3 pEC50 ± SEM: mean of three experiments in triplicate
T2 construct: expressed in transfected cells; host or cells: HEK293 / HEK293T cells, stably transfected; membrane preparations
T2 sequence (P49682 1-368): T1 sequence (P49682 1-368)
How it was run: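 Membranes from HEK293 cells stably expressing human CXCR3 (30 µg/mL protein) preincubated 30 min at 37 °C with test compound, CXCL11 and 1 µM GDP in HEPES/MgCl2/NaCl/saponin buffer, pH 7.4. Then 0.10 nM [35S]GTPγS added for 30 min at 37 °C; filter-bound radioactivity counted, triplicates, 3–4 experiments.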

Structure (SMILES) | β-arrestin 2 recruitment, intrinsic agonism (result in words) (CXCR3-PK1) | CXCR3-PK1 efficacy (%) (CXCR3-PK1; % of CXCL11 mediated effect, CXCR3-PK1, listed as 11/FAUC103 6) | Emax (CXCR3-PK1; % of CXCL11 mediated effect, CXCR3-PK1, read-out: CXCR3-PK1 efficacy (%) (converted)) | CXCR3-PK1 pEC50 ± SEM (CXCR3-PK1; CXCR3-PK1, listed as 11/FAUC103 6) | CXCR3-PK1 pEC50 ± SEM (CXCR3-PK1; CXCR3-PK1, listed as FAUC1036) | CXCR3 Efficacy (%) ± SEM (CXCR3) | CXCR3 mediated G protein activation (result in words) (CXCR3; listed as 11/FAUC1036) | CXCR3 mediated G protein activation (result in words) (CXCR3; listed as FAUC1036) | CXCR3 pEC50 ± SEM (CXCR3) | CXCR3-PK1 pEC50 ± SEM (CXCR3-PK1; CXCR3-PK1) | CXCR3 Efficacy (%) ± SEM (CXCR3; listed as 14/FAUC1104) [%] | CXCR3 Efficacy (%) ± SEM (CXCR3; listed as FAUC1104) [%] | CXCR3 pEC50 ± SEM (CXCR3; listed as 14/FAUC1104) | CXCR3 pEC50 ± SEM (CXCR3; listed as FAUC1104) | Emax (CXCR3; read-out: CXCR3 Efficacy (%) ± SEM) [%]
CC(C)(C)OC(=O)N[C@@H](CCCCNC(=O)[C@@H]1Cc2ccccc2CN1C(=O)CCC(=O)c1ccccc1)C(=O)NCC(c1ccccc1)c1ccccc1 [Compound 11, Tert-butyl ((S)-1-((2,2-diphenylethyl)amino)-1-oxo-6-((S)-2-(4-oxo-4-phenylbutanoyl)-1,2,3,4-tertahydroisoquinoline-3-carboxamido)hexan-2-yl)carbamate] | activates the β2-arrestin recruitment | 30±5 | 30 | 6.64±0.38 | 6.64 ± 0.38 | No effect | failed to induce CXCR3 mediated G protein activation | without any activation of G proteins; also recorded: has no effect on the G-protein signalling | No effect |  |  |  |  |  | 
COc1ccc(C(=O)CCC(=O)N2Cc3ccccc3C[C@H]2C(=O)NCCCC[C@H](NC(=O)OC(C)(C)C)C(=O)NCC(c2ccccc2)c2ccccc2)cc1 [Compound 14, Tert-butyl ((S)-1-((2,2-diphenylethyl)amino)-6-((S)-2-(4-(4-methoxyphenyl)-4-oxobutanoyl)-1,2,3,4-tetrahydroisoquinoline-3-carboxamido)-1-oxohexan-2-yl)carbomate] | complete loss of intrinsic agonistic properties |  |  |  |  |  |  |  |  | No effect | 50±19 | 50 | 5.22±0.31 | 5.22 | 50

From patent EP3156398A1, “AGONISTS OF THE CHEMOKINE RECEPTOR CXCR3” (Friedrich-Alexander-Universität Erlangen-Nürnberg, priority 2015, dated 2017)
